From patent publication US6569451B1, “Targeted polymerized liposome diagnostic and treatment agents” (Targesome, Inc., priority 1994, dated 2003)

Experiments:
[1] = Magnetic resonance relaxivity (R1, R2) of paramagnetic polymerized liposomes; format: physicochemical
From the text: We have constructed paramagnetic polymerized liposomes using the above techniques with 2.5 to 100 mol % of the gadolinium chelated diamide shown in FIG. 4, with the polyethylene glycol linker m=1 and m=2, and sizes ranging from 30 nm to 200 nm in diameter. We have determined the maximum T1 relaxivity, showing the best contrast, is obtained with 15% gadolinium chelated diamide and 85% DAPC with m=2 and having 200 nm particle size. High relaxivity is also observed with 30% gadolinium chelated diamide and 70% PDA with m=1 and having a variable particle size of about 10 to about 200 nm.
Similar measurements were made using PDA liposomes as the matrix lipid and the gadolinium chelated diamide (m=1).

[2] = rat, in vivo; cited from earlier work

molar relaxivity per Gd^+3 ion [1]: 4.2 mM⁻¹ s⁻¹
R1 ([1]; DAPC matrix lipid, gadolinium-diamide %, linker m and size as in label): 4.4 s⁻¹ mM⁻¹
SMILES: O=C([O-])CN(CCN(CC(=O)[O-])CC(=O)O)CCN(CC(=O)[O-])CC(=O)O.[Gd+3] [Gd (DTPA), gadolinium diethylenetriaminepentaacetic acid]
elimination from the blood pool [2]: within a few minutes
